The text below walks through data of ChEMBL document CHEMBL4316596, “Antimicrobial Peptides with High Proteolytic Resistance for Combating Gram-Negative Bacteria” (J Med Chem, 2019).

Calls of active or inactive are those of the source. The calls are words filed in the database; no cut-off is given here. Bounds are passed on as bounds.

The target in series [1] is T1, Chymotrypsin (Homo sapiens, UniProt Q99895+P17538+P40313+Q6GPI1). Description: Stability of the compound assessed as chymotrypsin (unknown origin)-mediated compound hydrolysis after 8 hrs by SDS-PAGE analysis. Type of series: ADME, protein assay.
Series [2] relates to Lipopolysaccharide (LPS). Nature of the series: Displacement of BODIPY-TR-cadaverine from Escherichia coli O111:B4 LPS at 4 uM after 1 hr by spectrofluorophotometric method relative to control.
Series [3] in a line: Stability of the compound assessed as pepsin (unknown origin)-mediated compound hydrolysis by LC-MS analysis. Particulars: human. The class given is ADME.
In series [4] the test system is Lipid bilayer. Description: Induction of membrane disruption in LPS/POPC/POPG unilamellar vesicles assessed as calcein-entrapped liposome leakage after 15 mins by fluorescence assay.
A short description of series [5]: Stability of the compound assessed as Tritirachium album proteinase K-mediated compound hydrolysis by LC-MS analysis. Particulars: parengyodontium album. Type of series: ADME.
The test system of series [6] is Escherichia coli. Description: Induction of membrane disruption in Escherichia coli ATCC 25922 assessed as pore formation at MBC after 1 hr by TEM analysis. Type of series: functional, organism-based.
Series [7] has as its system Escherichia coli. Nature of the series: Induction of cell membrane disruption in Escherichia coli ATCC 25922 at MBC after 30 mins using FITC-labelled peptides by propidium iodide-staining based confocal fluorescent microscopy. The class given is organism-based.
Series [8] deals with Escherichia coli. Description: Bactericidal activity against Escherichia coli ATCC 25922 assessed as elimination of bacterial cells at MBC after 60 mins by time kill assay. The class given is functional.
Series [9] in a line: Drug localisation at cell membrane of Escherichia coli ATCC 25922 at MBC after 30 mins using FITC-labelled peptides by propidium iodide-staining based confocal fluorescent microscopy. The settings on record: 0.5 h. Type of series: ADME, cell membranes.
Series [10] deals with Escherichia coli. Description: Induction of membrane disruption in Escherichia coli ATCC 25922 assessed as pore formation at MBC after 1 hr by SEM analysis. Type of series: functional, organism-based.
Series [11] can be described thus: Toxicity in ICR mouse assessed as effect on ALT levels in serum at 20 mg/kg, ip administered every 12 hrs for 3 days measured at 72 hrs post dose. Type of series: organism-based. Particulars: in vivo.
Series [12] deals with Lipid bilayer. Nature of the series: Induction of membrane disruption in LPS/PC/PG unilamellar vesicles assessed as calcein-entrapped liposome leakage at 2 uM after 15 mins by fluorescence assay.
Series [13] deals with Escherichia coli. Nature of the series: Bactericidal activity against Escherichia coli ATCC 25922 using FITC-labelled peptide incubated for 4 hrs followed by culture spread on agar plates and cultured overnight. The class given is functional. The settings on record: ATCC 25922, 4 h.
Series [14] relates to Escherichia coli. Description: Induction of membrane disruption in Escherichia coli ATCC 25922 assessed as sparse cytoplasmic distribution at MBC after 1 hr by TEM analysis. Type of series: functional, organism-based.
The nature of series [15]: Renal toxicity in ICR mouse assessed as effect on BUN levels in serum at 20 mg/kg, ip administered every 12 hrs for 3 days measured at 72 hrs post dose. The class given is organism-based. Particulars: in vivo.
A short description of series [16]: Cytotoxicity against mouse RAW264.7 cells assessed as survival rate at 16 uM after 18 to 24 hrs by MTT assay relative to control. The settings on record: read-out: Activity. Type of series: cell-based. On the technique in general: Formazan colour is commonly taken as a measure of viable cells.
In series [17] the test system is Lipopolysaccharide (LPS). Nature of the series: Binding affinity to Escherichia coli O111:B4 LPS by SPR method. On the technique in general: SPR reads the build-up and loss of mass on a sensor chip optically.
The nature of series [18]: Toxicity in ICR mouse assessed as effect on AST levels in serum at 20 mg/kg, ip administered every 12 hrs for 3 days measured at 72 hrs post dose. Type of series: organism-based. The settings on record: in vivo.
The test system of series [19] is Lipopolysaccharide (LPS). Description: Displacement of BODIPY-TR-cadaverine from Escherichia coli O111:B4 LPS after 1 hr by spectrofluorophotometric method.
For series [20], the system named is Escherichia coli. Description: Induction of membrane disruption in Escherichia coli ATCC 25922 assessed as formation of broken membrane fragments at MBC after 1 hr by SEM analysis. The class given is functional, organism-based.
The subject of series [21] is RAW264.7. Nature of the series: Inhibition of LPS-stimulated TNFalpha production in mouse RAW264.7 cells at 16 uM after 20 hrs by […]. Type of series: functional, cell-based.
The nature of series [22]: Toxicity in ICR mouse assessed as effect on AST levels in serum at 40 mg/kg, ip administered every 12 hrs for 3 days measured at 72 hrs post dose. Type of series: organism-based. Particulars: in vivo.
Series [23] concerns Escherichia coli. Description: Induction of membrane disruption in Escherichia coli ATCC 25922 assessed as membrane content leakage at MBC after 1 hr by SEM analysis. The class given is functional, organism-based.
Series [24] has as its system Escherichia coli. Description: Induction of cytoplasmic membrane depolarization in Escherichia coli ATCC 25922 assessed as induction cytoplasmic ONPG release at 4 uM up to 120 mins by DiSC3-5 dye-based fluorescence spectrophotometric method. The class given is functional, organism-based.
The test system of series [25] is Escherichia coli. Description: Induction of membrane disruption in Escherichia coli ATCC 25922 assessed as outer membrane separation at MBC after 1 hr by TEM analysis. Type of series: functional, organism-based.
Series [26] concerns RAW264.7. Description: Inhibition of LPS-stimulated NO production in mouse RAW264.7 cells at 16 uM after 20 hrs by Griess reagent-based assay. Type of series: functional, cell-based.
Series [27] can be described thus: Toxicity in ICR mouse assessed as effect on ALT levels in serum at 40 mg/kg, ip administered every 12 hrs for 3 days measured at 72 hrs post dose. The class given is organism-based. The settings on record: in vivo.
In series [28] the test system is Escherichia coli. Nature of the series: Induction of outer membrane permeabilization in Escherichia coli ATCC 25922 at 1 to 64 uM by NPN-dye based assay. The class given is organism-based.
Series [29] has as its system Lipid bilayer. Description: Induction of membrane disruption in POPC/POPG unilamellar vesicles assessed as calcein-entrapped liposome leakage at 1 to 64 uM after 15 mins by fluorescence assay.
Series [30] addresses T1, Chymotrypsin. Nature of the series: Stability of the compound assessed as chymotrypsin (unknown origin)-mediated compound hydrolysis by measuring compound helicity by CD spectroscopy. The class given is ADME, protein assay.
The subject of series [31] is Escherichia coli. Description: Bactericidal activity against Escherichia coli ATCC 25922 assessed as elimination of bacterial cells at MBC after 30 mins by time kill assay. The class given is functional.
The target in a further series is Trypsin (Homo sapiens, UniProt P07477+P07478+P35030). Nature of the series: Stability of the compound assessed as trypsin (unknown origin)-mediated compound hydrolysis after 1 hrs by SDS-PAGE analysis. Type of series: ADME, protein assay.
Series [32] in a line: Stability of the compound assessed as Tritirachium album proteinase K-mediated compound hydrolysis after 1 hrs by SDS-PAGE analysis. The class given is ADME. Particulars: parengyodontium album.
Series [33] is described as follows: Stability of the compound assessed as pepsin (unknown origin)-mediated compound hydrolysis after 1 hrs by SDS-PAGE analysis. The settings on record: human. Type of series: ADME.
Series [34] has as its target T1, Chymotrypsin. Description: Stability of the compound assessed as chymotrypsin (unknown origin)-mediated compound hydrolysis after 1 hrs by SDS-PAGE analysis. Type of series: ADME, protein assay.
A further series relates to Pseudomonas aeruginosa. Description: Ratio of MBC against Pseudomonas aeruginosa ATCC 27853 after 50 passages to MBC against Pseudomonas aeruginosa ATCC 27853. The class given is functional.
A short description of series [35]: Hemolytic activity against human RBC at 128 uM after 1 hr. Type of series: ADME, cell-based, Erythrocyte. The settings on record: red blood cells (erythrocytes), read-out: Activity.
Series [36] can be described thus: Cytotoxicity against IPECJ2 cells assessed as cell death at 16 uM after 18 to 24 hrs by MTT assay relative to control. The class given is cell-based, Sus scrofa. The settings on record: pig.
Series [37] deals with Escherichia coli. Description: Bactericidal activity against Escherichia coli ATCC 25922 assessed as elimination of bacterial cells at MBC after 5 mins by time kill assay. The class given is functional.
Series [38] can be described thus: Cytotoxicity against mouse RAW264.7 cells assessed as cell viability at 4 uM after 18 to 24 hrs by MTT assay relative to control. The settings on record: read-out: Activity. The class given is cell-based.
Another series has as its system HEK-293T. Nature of the series: Cytotoxicity against HEK293T cells assessed as cell death at 32 uM after 18 to 24 hrs by MTT assay relative to control. The class given is cell-based. Particulars: human.

Regarding H-IKPIIKPIIKPIIKPIIKPIIKPIIKPI-NH2, the Stability result on Chymotrypsin [1] was “Stable”.
In general, MBC refers to the lowest tested concentration that kills the bacteria rather than only halting them. A low value points to greater bactericidal potency. Turning to H-IRPIIRPIIRPIIRPIIRPIIRPIIRPI-NH2, the Activity is 70% with Lipopolysaccharide (LPS) [2]; “Dose-dependent effect” with Lipid bilayer [4]; over 99.99% in the series with Escherichia coli [8]; “Toxic” in [11]; 30% with Lipid bilayer [12]; “Toxic” in [15]. In addition, the Activity result was “Dose-dependent effect” in the series with Lipopolysaccharide (LPS) [17]; “Toxic” in series [18]; “Dose-dependent effect” with Lipopolysaccharide (LPS) [19]; “Non-Toxic” in series [22]; “Non-Toxic” in [27]. Also, the Stability result (in series [3]; in [5]; at Chymotrypsin [1]) was “Stable” in each case. The outcome in the series with Escherichia coli [6], in the series with Escherichia coli [7], in the series on Escherichia coli [10], in the series with Escherichia coli [14], in the series on Escherichia coli [20] and in the series on Escherichia coli [23] was Active. In addition, the result in the series with Escherichia coli [24], in the series with Escherichia coli [25], in the series on Escherichia coli [28] and with Lipid bilayer [29] was Active. Also, the Drug uptake result in series [9] is listed as “Active”. In the series on Escherichia coli [13], this molecule came in with an MBC of 4 µM. Moreover, in series [16], the viability at 16 µM is over 80%. Moreover, the inhibition result in the series with RAW264.7 [21] and in the series with RAW264.7 [26] was “Active” throughout.
On to H-LKPLLKPLLKPLLKPLLKPLLKPLLKPL-NH2, for which the Stability entry at Chymotrypsin [30] was “Unstable”. Besides, the Activity with Escherichia coli [31] is listed as over 99.99%.
Regarding `CC[C@H](C)[C@H](NC(=O)CN)C(=O)NCC(=O)N[C@@H](C)C(=O)N[C@H](C(=O)N[C@@H](CC(C)C)C(=O)N[C@@H](CCCCN)C(=O)N[C@H](C(=O)N[C@@H](CC(C)C)C(=O)N[C@H](C(=O)N[C@H](C(=O)NCC(=O)N[C@@H](CC(C)C)C(=O)N1CCC[C@H]1C(=O)N[C@@H](C)C(=O)N[C@@H](CC(C)C)C(=O)N[C@H](C(=O)N[C@@H](CO)C(=O)N[C@@H](Cc1c[nH]c2ccccc12)C(=O)N[C@H](C(=O)N[C@@H](CCCCN)C(=O)N[C@@H](CCCNC(=N)N)C(=O)N[C@@H](CCCCN)C(=O)N[C@@H](CCCNC(=N)N)C(=O)N[C@@H](CCC(N)=O)C(=O)N[C@@H](CCC(N)=O)C(N)=O)[C@@H](C)CC)[C@@H](C)CC)[C@@H](C)O)[C@@H](C)O)C(C)C)C(C)C` [MELITTIN], the Stability result (on Trypsin; in [32]; in series [33]; on Chymotrypsin [34]) was “Unstable” in each case. Moreover, in the series with Pseudomonas aeruginosa, the Ratio was found to be 256.
Turning to H-LRPLLRPLLRPLLRPLLRPLLRPLLRPL-NH2, in series [35], the hemolysis at 1 h, 128 µM was over 40%. The Stability entry on Chymotrypsin [30] is “Unstable”. For the same molecule, the Activity in series [36] is listed as 80%; in the series on Escherichia coli [37] it was over 99.99%; with HEK-293T, 80%. In series [38], the viability at 4 µM came out at 7.52%.
